Columns and labels:
[1] = biological target: T1, elastase isolated from human leukocytes (Homo sapiens, UniProt P08246); assay: Measurement of anti-elastase activity; format: biochemical
T1 construct: The elastase isolated from human leukocytes were used; from tissue; host or cells: human leukocytes
T1 sequence (P08246 30-267): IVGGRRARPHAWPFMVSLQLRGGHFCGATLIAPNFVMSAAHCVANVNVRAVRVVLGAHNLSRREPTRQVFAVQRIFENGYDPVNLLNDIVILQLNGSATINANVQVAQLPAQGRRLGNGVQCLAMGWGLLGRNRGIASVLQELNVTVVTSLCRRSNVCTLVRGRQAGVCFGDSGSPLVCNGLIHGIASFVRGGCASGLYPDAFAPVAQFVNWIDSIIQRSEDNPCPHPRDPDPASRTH
Procedure: The anti-elastase activity (elastase being an elastin degradation enzyme) was tested as below. The elastase isolated from human leukocytes were used. The synthetic oligopeptide, MeOSuc-Ala-Ala-Pro-Val-pNA, was used as a substrate of an enzyme reaction. A 100 mM Tris (pH 7.5) solution was used as a buffer solution. Elastase was finally used at 0.2 mU using the buffer solution. In addition, the synthetic substrate of elastase was made into a 100 mM solution using […], and then diluted to a final concentration of 0.5 mM in the buffer solution. […] The concentration of quercetin (Sigma Co.), which was a positive control known as an anti-elastase substance, was 10 μg/ml or 20 μg/ml in the test. The reaction was carried out in 96-well UV plates (Corning Co.) at room temperature for 20 minutes. The absorbance was measured at 405 nm at intervals of 1 minute using a microplate spectrophotometer (Bio-Rad). The enzyme activity was determined by obtaining the maximal slope of absorbance over time. All enzymatic reactions were repeatedly carried out three times, and expressed as average values. The […] was calculated as below:
Anti-elastase activity (%)=[(absolute value of slope in control−absolute value of slope in test sample)/absolute value of slope in control]×100 [Calculation Formula]

[2] = system: hyaluronic acid synthase 2 (HAS2); assay: Expression level of skin moisturizing factor HAS2 in UVA-irradiated HaCaT cells (RT-PCR); format: cell-based, human; settings: UVA 5 J/cm^2, 10, 20, 40 μg/ml, 24 hours
Procedure: (§1) In order to investigate the expression levels of aquaporin 3 (AQP3) and hyaluronic acid synthase 2 (HAS2), which are moisturizing factors involved in the migration of cell moisture, the test was performed using the human skin keratinocytes HaCaT cells (Korean Cell Line Bank). The HaCaT cells were incubated in Dulbecco's modified Eagle's medium (DEME, Gibco 1210-0038) containing 10% FBS. Cell incubation was carried out using a 5% CO2 incubator at 37° C. After the cells were treated with Irilin B and ultraviolet light (aging treatment: UVA: 5 J/cm^2), the levels of AQP3 and HAS2 expressed in the cells were measured. The expression levels were measured by extracting RNA from the HaCaT cells and performing real-time polymerase change reaction (RT-PCR). The test substance Irilin B was treated after UVA irradiation. Irilin B was in advance prepared into a 10 mg/ml stock solution by addition of DMEM. Upon the test, the cells were treated with the stock solution diluted to 1/1,000 to 1/500. […]
(§2) The gene expression test (RNA extraction and real-time polymerase chain reaction (PCR)) was performed in the following order:
(§3) i) RNA was extracted using TRIzol Reagent (Gibco, USA).
(§4) ii) The cDNA synthesis from the extracted RNA was performed using the ReverTra Ace reverse transcriptase kit (Toyobo, USA). […]

[3] = system: Collagenase isolated from mouse pancreases; assay: Measurement of anti-collagenase activity; format: biochemical
Procedure: Collagenase, used in the measurement of enzyme activity, was isolated from mouse pancreases. The synthetic peptide, N-(3-[2-Furyl]acryloyl)-Leu-Gly-Pro-Ala, was used as a substrate compound for an enzymatic reaction. A solution containing 50 mM Tricine, 10 mM CaCl2.H2O, and 400 mM NaCl (pH 7.5) dissolved therein was used as a buffer solution. The synthetic substrate was dissolved to a concentration of […] in the buffer solution, and then finally diluted to 75 μM. Collagenase was dissolved to a concentration of 1 unit/ml in tertiary distilled water at 4° C. Upon the test, the collagenase diluted to a final concentration of 0.05 unit/ml in the buffer solution was used. […] In addition, the concentration of retinol (Sigma Co.), which was a positive control known as an anti-collagenase substance, was 10 μg/ml or 20 μg/ml in the test. The reaction was carried out in 96-well UV plates (Corning Co.) at room temperature for 10 minutes. The absorbance was measured at 345 nm at intervals of 1 minute using a microplate spectrophotometer (Bio-Rad). The enzyme activity was determined by obtaining the maximal slope of absorbance over time. All enzymatic reactions were repeatedly carried out three times, and expressed as average values. The anti-collagenase activity was calculated as below:
Anti-collagenase activity (%)=[(absolute value of slope in control−absolute value of slope in test sample)/absolute value of slope in control]×100 [Calculation Formula]

[4] = system: aquaporin 3 (AQP3); assay: Expression level of skin moisturizing factor AQP3 in UVA-irradiated HaCaT cells (RT-PCR); format: cell-based, human
Procedure: as §1, §2, §3, §4

[5] = system: Human skin keratinocytes; assay: Keratinocyte differentiation promoting effect; format: cell-based; settings: for Cell differentiation promoting effect (%): vs distilled water (0%)
Procedure: Human skin keratinocytes (Korean Cell Line Bank) were seeded in the CO2 incubation flask in which DMEM containing 10% FBS was placed. After the cells were grown to a confluency of about 80%, Irilin B at different concentrations (5, 10, 20, 50, 100 μg/ml) were added to the cells, followed by incubation for 3 days. Thereafter, the cells were treated with a reduction modifier, such as sodium dodecyl sulfate (SDS) and β-mercaptoethanol, to remove proteins. After the treatment, the remaining keratinocyte layer was suspended in distilled water, and then the absorbance was measured at 310 nm to analyze the peptide concentration. The increase by each sample was compared on the basis of the negative control, distilled water (0%). In the positive control, the cells were treated with 10 nM TGF-β known as a cell differentiation factor. All the tests of keratinocyte differentiation promoting effect were repeatedly carried out three times. The absorbance at 310 nm is expressed as a mean and standard deviation, and the cell differentiation promoting effect is expressed, using the following calculation formula, as an average value (%), in Table 4.
Cell differentiation promoting effect (%)=(absorbance value at 310 nm in test sample−absorbance value at 310 nm in negative control)×100 [Calculation Formula]

[6] = both at 20 μg/ml, same conditions

Anti-collagenase activity (%) ([3]; 10 μg/ml) | Enzyme activity (Absolute value of maximal slope of absorbance over time at 345 nm) ([3]; 10 μg/ml) | Anti-collagenase activity (%) ([3]; 20 μg/ml) | Enzyme activity (Absolute value of maximal slope of absorbance over time at 345 nm) ([3]; 20 μg/ml) | Compound | Enzyme activity (Absolute value of maximal slope of absorbance over time at 405 nm) ([1]; 10 μg/ml) | inhibition at 10 µg/mL ([1]; 10 μg/ml) | Enzyme activity (Absolute value of maximal slope of absorbance over time at 405 nm) ([1]; 20 μg/ml) | inhibition at 20 µg/mL ([1]; 20 μg/ml) | other results
– | – | – | – | O=c1c(O)c(-c2ccc(O)c(O)c2)oc2cc(O)cc(O)c12 [Quercetin, quercetin, reference compound] | 0.88 | 30.2 ± 3.14% | 0.77 | 38.9% | –
49.38% | 0.41 | 62.96% | 0.30 | COc1c(O)cc2occ(-c3ccccc3O)c(=O)c2c1O [Irilin B, 5,7,2′-trihydroxy-6-methoxyisoflavone] | 0.72 | 42.9% | 0.54 | 57.1% | expression of HAS2 after UVA irradiation (FIG. 2) [2]: again restored to a level in the normal control; Anti-collagenase activity (%) ([3]; 5 μg/ml): 33.33%; Enzyme activity (Absolute value of maximal slope of absorbance over time at 345 nm) ([3]; 5 μg/ml): 0.54; anti-collagenase activity compared with retinol [3, 6]: about 2.05 fold; expression level of AQP3 after UVA irradiation (FIG. 1) ([4]; UVA 5 J/cm^2, 40 μg/ml): again increased to a level in the control irradiated without UVA; expression of AQP3 after UVA irradiation (FIG. 1) ([4]; UVA 5 J/cm^2, 10, 20, 40 μg/ml, 24 hours): restored the UVA-reduced level of AQP3 in a dose dependent manner; Cell differentiation promoting effect (%) ([5]; 10 μg/ml, 3 days): 28.2%; Cell differentiation promoting effect (%) ([5]; 20 μg/ml, 3 days): 46.7%; Cell differentiation promoting effect (%) ([5]; 50 μg/ml, 3 days): 95.3%; cell differentiation promoting effect compared with positive control (in words) ([5]; 100 μg/ml vs TGF-β 10 nM): equivalent to the cell differentiation factor TGF-β (10 nM); Cell differentiation promoting effect (%) ([5]; 100 μg/ml, 3 days): 142.4%; differentiation of keratinocytes (in words) ([5]; 5, 10, 20, 50, and 100 μg/ml): promoted the differentiation of keratinocytes; Enzyme activity (Absolute value of maximal slope of absorbance over time at 405 nm) ([1]; 5 μg/ml): 0.85; inhibition at 5 µg/mL ([1]; 5 μg/ml): 32.5%; anti-elastase activity compared with quercetin [1, 6]: about 1.47 fold
17.28 ± 0.85% | 0.67 | 30.86% | 0.56 | CC1=C(/C=C/C(C)=C/C=C/C(C)=C/CO)C(C)(C)CCC1 [Retinol, reference compound] | – | – | – | – | –
– | – | – | – | transforming growth factor-β (TGF-β) | – | – | – | – | Cell differentiation promoting effect (%) ([5]; 10 nM): 144.7%

Reference: US20210401708A1, “Skin Anti-Aging Composition Containing Irilin B” (PHYTO CORPORATION INC., priority 2018, published 2021)
